From ChEMBL document CHEMBL1201862, “PubChem BioAssay data set” (2004)
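Test compounds were applied to cells in 96-well plates for 48 hours at 5 doses. GI50 = concentration required for 50% inhibition of growth.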 Calls of active or inactive are those of the source. Rule as the data show it: active = GI50 up to about 1.1 µM and inactive = higher.

Key:
Experiment in all cases: NCI-60 cell line screen, 48 h
[1] = test system: HT-29
[2] = test system: UO-31
[3] = test system: KM12
[4] = test system: NCI-H522
[5] = test system: UACC-257
[6] = test system: CCRF-CEM
[7] = test system: SR
[8] = test system: SK-MEL-28
[9] = test system: OVCAR-3
[10] = test system: Malme-3M
[11] = test system: SK-OV-3
[12] = test system: NCI-H226
[13] = test system: SK-MEL-2
[14] = test system: OVCAR-5
[15] = test system: SW-620
[16] = test system: IGROV-1
[17] = test system: M14
[18] = test system: HOP-62
[19] = test system: RXF 393

Measured: GI50

C=CCN1C(N)=C(C(N)=O)S/C1=C1/SC(=S)N(c2ccc(C)cc2)C1=O
inactive: [1] > 100 µM | [2] > 100 µM | [3] > 100 µM | [4] > 100 µM | [5] > 100 µM | [6] > 100 µM | [7] > 100 µM | [8] > 100 µM | [9] > 100 µM | [10] 36.8 µM | [11] > 100 µM | [12] > 100 µM | [13] > 100 µM | [14] 5.66 µM | [15] > 100 µM | [16] > 100 µM

N#CC(NC12CC3CC(CC(C3)C1)C2)c1ccccc1C(F)(F)F (centres undefined)
inactive: [1] > 100 µM | [2] > 100 µM | [3] > 100 µM | [4] > 100 µM | [6] > 100 µM | [7] > 100 µM | [8] > 100 µM | [9] > 100 µM | [17] > 100 µM | [18] > 100 µM | [10] > 100 µM | [19] > 100 µM | [12] > 100 µM | [13] > 100 µM | [14] > 100 µM | [15] > 100 µM

COc1ccc(CNc2nc3cc(C(F)(F)F)ccc3nc2C)cc1OC
inactive: [1] 39.9 µM | [2] 24 µM | [3] 23.7 µM | [4] 21.9 µM | [5] 19 µM | [6] 31.9 µM | [8] 44.1 µM | [9] 32.5 µM | [17] 20.3 µM | [18] 20.8 µM | [10] 20.1 µM | [11] 36.7 µM | [13] 19.5 µM | [14] 37.5 µM | [15] 37.9 µM | [16] 31 µM

Cn1cc(C(=O)/C(Cl)=C(\Cl)C(=O)O)c2ccccc21
inactive: [1] > 100 µM | [2] > 100 µM | [3] > 100 µM | [5] > 100 µM | [6] > 100 µM | [8] > 100 µM | [9] > 100 µM | [17] > 100 µM | [18] > 100 µM | [10] > 100 µM | [11] > 100 µM | [19] > 100 µM | [12] > 100 µM | [13] > 100 µM | [14] > 100 µM | [15] > 100 µM | [16] > 100 µM

CC(C)OP(=O)(OC(C)C)/C(=N/Nc1ccc([N+](=O)[O-])cc1)NCCO
inactive: [2] > 100 µM | [3] > 100 µM | [4] > 100 µM | [5] > 100 µM | [6] > 100 µM | [7] > 100 µM | [8] > 100 µM | [9] > 100 µM | [17] > 100 µM | [18] > 100 µM | [10] > 100 µM | [12] > 100 µM | [13] > 100 µM | [14] > 100 µM | [15] > 100 µM

O=C(O)c1ccc([Se][Se]c2ccc(C(=O)O)cc2)cc1
inactive: [2] 29.9 µM | [3] 29 µM | [4] 23.6 µM | [7] > 10 µM | [8] 20.7 µM | [9] 22.5 µM | [17] 18.5 µM | [10] 26.1 µM | [19] 21.2 µM | [12] 26.8 µM | [13] 27.4 µM | [14] 23.5 µM | [15] 32.4 µM | [16] 30.4 µM

NC1C=NNC1=O (centres undefined)
inactive: [1] > 100 µM | [2] > 100 µM | [3] > 100 µM | [4] > 100 µM | [5] > 100 µM | [6] > 100 µM | [8] > 100 µM | [17] > 100 µM | [10] > 100 µM | [11] > 100 µM | [19] > 100 µM | [13] > 100 µM | [14] > 100 µM | [15] > 100 µM | [16] > 100 µM
